This experiment addresses Protein cereblon/Tyrosine-protein kinase JAK2 (Homo sapiens, UniProt O60674+Q96SW2). Nature of the experiment: Protac activity at E3 ubiquitin ligase/JAK2 in human MHH-CALL-4 cells assessed as E3 ubiquitin ligase mediated JAK2 degradation incubated for 32 hrs by immunoblotting analysis. It is filed as cell-based, MHHCALL4. (Immunoblotting shows a protein as a band on a membrane.)

Chain of Protein cereblon/Tyrosine-protein kinase JAK2 (O60674 whole entry): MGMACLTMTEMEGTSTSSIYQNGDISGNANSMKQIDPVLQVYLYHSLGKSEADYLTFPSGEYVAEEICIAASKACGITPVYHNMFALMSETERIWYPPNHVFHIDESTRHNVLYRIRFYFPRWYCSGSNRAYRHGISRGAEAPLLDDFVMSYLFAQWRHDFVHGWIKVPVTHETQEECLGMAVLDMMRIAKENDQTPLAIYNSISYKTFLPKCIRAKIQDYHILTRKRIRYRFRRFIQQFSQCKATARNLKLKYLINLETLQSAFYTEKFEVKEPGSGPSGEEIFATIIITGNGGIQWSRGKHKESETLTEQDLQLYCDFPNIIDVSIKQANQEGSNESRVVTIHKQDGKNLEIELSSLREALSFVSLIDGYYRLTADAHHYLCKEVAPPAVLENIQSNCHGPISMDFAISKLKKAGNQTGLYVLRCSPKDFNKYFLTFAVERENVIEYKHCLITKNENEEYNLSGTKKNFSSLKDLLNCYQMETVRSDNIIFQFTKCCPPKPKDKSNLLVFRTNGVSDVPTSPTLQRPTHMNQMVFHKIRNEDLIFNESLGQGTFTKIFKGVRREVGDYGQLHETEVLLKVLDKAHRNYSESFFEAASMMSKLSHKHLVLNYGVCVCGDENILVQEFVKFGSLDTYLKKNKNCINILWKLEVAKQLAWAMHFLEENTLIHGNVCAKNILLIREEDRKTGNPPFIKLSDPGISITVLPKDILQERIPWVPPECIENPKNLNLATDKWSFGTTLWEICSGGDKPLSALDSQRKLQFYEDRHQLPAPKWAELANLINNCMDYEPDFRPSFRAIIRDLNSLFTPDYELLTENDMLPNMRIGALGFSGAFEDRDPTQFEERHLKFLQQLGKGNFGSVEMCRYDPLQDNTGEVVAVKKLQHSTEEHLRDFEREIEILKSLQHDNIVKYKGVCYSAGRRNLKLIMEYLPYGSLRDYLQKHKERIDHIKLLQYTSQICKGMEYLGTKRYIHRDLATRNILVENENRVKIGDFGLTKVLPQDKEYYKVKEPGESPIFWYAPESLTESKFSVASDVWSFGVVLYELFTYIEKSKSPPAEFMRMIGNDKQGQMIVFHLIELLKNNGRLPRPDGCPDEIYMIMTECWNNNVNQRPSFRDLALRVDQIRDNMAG
Chain of Protein cereblon/Tyrosine-protein kinase JAK2 (Q96SW2 whole entry): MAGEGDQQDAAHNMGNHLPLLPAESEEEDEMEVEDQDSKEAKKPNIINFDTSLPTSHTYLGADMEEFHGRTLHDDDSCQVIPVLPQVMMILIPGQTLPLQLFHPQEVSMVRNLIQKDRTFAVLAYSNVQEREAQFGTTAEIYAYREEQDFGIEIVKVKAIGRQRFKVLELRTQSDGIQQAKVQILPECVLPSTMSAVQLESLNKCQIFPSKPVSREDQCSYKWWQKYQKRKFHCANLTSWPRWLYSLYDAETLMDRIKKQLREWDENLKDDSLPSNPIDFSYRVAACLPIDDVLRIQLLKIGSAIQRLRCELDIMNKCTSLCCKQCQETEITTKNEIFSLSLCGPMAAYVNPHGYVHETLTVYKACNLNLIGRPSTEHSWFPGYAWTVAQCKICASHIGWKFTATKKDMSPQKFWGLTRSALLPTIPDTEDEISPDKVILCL

One may read the EC50 as the concentration at which the effect is half-maximal. With `CCCn1cc(-c2nc(Nc3ccc(C(=O)NCCCCCc4cccc5c4CN(C4CCC(=O)NC4=O)C5=O)cc3)nc3[nH]ccc23)cn1` (stereo unspecified), the EC50 came out at 0.5 nM.

The record behind these values is ChEMBL document CHEMBL5113558, “Discovery of Potent PROTACs for the Potential Treatment of Leukemia” (ACS Med Chem Lett, 2022).
